Drawing on patent US20260240878A1, “PTP1B/TC-PTP DUAL INHIBITORS AND PROTEIN DEGRADERS” (Purdue Research Foundation, priority 2023, published 2026), this text covers TC-PTP degradation, IC50 and PTP1B degradation for 1 molecule.

*1 amine or outer side, *2 acyl side, *3 side chain or, on linkers, in order; H or OH if unused. Where a SMILES comes first, the peptide text is derived from it. [ ]: non-standard residue; d: D form. The star is where a group is joined. NHCH2(1,3-C6H4)CH2CO = O=C(Cc1cccc(CN[*:1])c1)[*:2]; F2Pmp = N[C@@H](Cc1ccc(C(F)(F)P(=O)(O)O)cc1)C(=O)O; Phenylacetyl(4-OH,3-OMe) = COc1cc(CC(=O)*)ccc1O; Benzoyl(3-Br,4-Me) = Cc1ccc(C(=O)*)cc1Br; X1 = Cc1ncsc1-c1ccc([C@H](C)N*)cc1; cisHyp = O=C(O)[C@@H]1C[C@H](O)CN1; Tle = CC(C)(C)[C@H](N)C(=O)O

Experiment [1] has as its target T1, TC-PTP (Homo sapiens, UniProt P17706).
T1 sequence (P17706 1-415): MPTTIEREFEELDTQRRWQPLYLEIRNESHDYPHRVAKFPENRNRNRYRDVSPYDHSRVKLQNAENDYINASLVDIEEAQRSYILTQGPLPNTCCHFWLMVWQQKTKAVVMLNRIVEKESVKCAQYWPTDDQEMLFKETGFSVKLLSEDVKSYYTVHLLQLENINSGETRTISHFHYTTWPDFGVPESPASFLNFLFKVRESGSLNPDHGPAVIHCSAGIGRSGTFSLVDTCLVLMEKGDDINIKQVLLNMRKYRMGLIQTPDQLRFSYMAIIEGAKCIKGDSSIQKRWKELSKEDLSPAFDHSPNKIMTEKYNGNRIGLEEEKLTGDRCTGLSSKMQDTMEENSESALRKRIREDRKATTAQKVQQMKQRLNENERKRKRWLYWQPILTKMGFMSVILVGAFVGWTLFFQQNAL
Description: Degradation assay in HEK293 cells (immunoblotting). Set-up: Degradation assay was conducted in HEK293 cells with 1 μM degrader and 24 hours incubation; endogenous in cells; host or cells: HEK293. Particulars: 100 nM, 4 hours. The format is cell-based. On the technique in general: Immunoblotting shows a protein as a band on a membrane.

Experiment [2] deals with T2, PTP1B (Homo sapiens, UniProt P18031).
T2 sequence (P18031 1-435): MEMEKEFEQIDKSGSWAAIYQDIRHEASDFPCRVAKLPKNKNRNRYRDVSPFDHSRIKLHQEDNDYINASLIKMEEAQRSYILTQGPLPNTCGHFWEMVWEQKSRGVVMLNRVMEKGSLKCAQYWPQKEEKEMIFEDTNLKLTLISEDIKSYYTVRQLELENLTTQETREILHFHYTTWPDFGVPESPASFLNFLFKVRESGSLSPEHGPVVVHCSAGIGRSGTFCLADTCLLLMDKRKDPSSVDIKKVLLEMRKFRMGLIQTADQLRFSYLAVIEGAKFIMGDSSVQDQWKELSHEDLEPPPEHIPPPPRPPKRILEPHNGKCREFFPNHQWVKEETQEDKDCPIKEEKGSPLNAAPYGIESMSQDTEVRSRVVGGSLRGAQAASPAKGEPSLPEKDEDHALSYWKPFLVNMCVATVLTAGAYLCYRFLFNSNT
The experiment is described as follows: PTP activity assay with pNPP substrate (IC50, Ki, mode of inhibition). The format is biochemical. To be noted: pNPP 2 mM, pH 7.0, 25° C.; read-out: IC50, nM PTP1B. In outline:
(§1)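 Hydrolysis of pNPP measured spectrophotometrically in pH 7.0 DMG buffer (EDTA, NaCl, DTT, BSA) at 25 °C, 0.4 nM enzyme. IC50 at 2 mM pNPP (Km) over an inhibitor titration; mode of inhibition and Ki from rates across varied pNPP and inhibitor levels, fitted to enzyme kinetic models.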

Experiment [3] concerns the target T1, TC-PTP. The description is as above. The format is biochemical. To be noted: pNPP 2 mM, pH 7.0, 25° C.; read-out: IC50, nM TC-PTP. In outline: as §1
Experiment [4] has as its target T2, PTP1B. Description: Degradation assay in HEK293 cells (immunoblotting). The format is cell-based. Details: Degradation assay was conducted in HEK293 cells with 1 μM degrader and 24 hours incubation; endogenous in cells; host or cells: HEK293. To be noted: 100 nM, 4 hours.

The term IC50 denotes the concentration that gives 50% inhibition. For `COc1cc(CC(=O)N[C@@H](Cc2ccccc2)C(=O)N[C@@H](Cc2ccc(C(F)(F)P(=O)(O)O)cc2)C(=O)N[C@@H](CCCCNC(=O)c2ccc(C)c(Br)c2)C(=O)NCc2cccc(CC(=O)N[C@H](C(=O)N3C[C@@H](O)C[C@H]3C(=O)N[C@@H](C)c3ccc(-c4scnc4C)cc3)C(C)(C)C)c2)ccc1O` [cis-47] ({Phenylacetyl(4-OH,3-OMe)}-F[F2Pmp]K(Benzoyl(3-Br,4-Me))[NHCH2(1,3-C6H4)CH2CO][Tle][cisHyp]-X1), the TC-PTP degradation result on TC-PTP [1] was “failed to degrade”. Moreover, the values for the IC50 on PTP1B [2] and at TC-PTP [3] were 25.1 ± 1.6 nM and 29.7 ± 2.1 nM, respectively. On PTP1B [4], the PTP1B degradation result is reported as “failed to degrade”.
